Patent US20160324153A1, “HERBICIDAL MIXTURE COMPRISING IMAZETHAPYR AND CYCLOXYDIM” (BASF AGROCHEMICAL PRODUCTS, priority 2014, published 2016)

How the values were obtained:
Assay type in all cases: in vivo
[1] = tested on: PHACA (Phalaris canariensis); assay: Post emergence treatment, herbicidal activity against PHACA; conditions: Example 2, post emergence
Text: (§1) Synergism can be described as an interaction where the combined effect of two or more compounds is greater than the sum of the individual effects of each of the compounds. The presence of a synergistic effect in terms of percent control, between two mixing partners (X and Y) can be calculated using the Colby equation (Colby, S. R., 1967, Calculating Synergistic and Antagonistic Responses in Herbicide Combinations, Weeds, 15, 21-22): When the observed combined control effect is greater than the expected (calculated) combined control effect (E), then the combined effect is synergistic. […] However, the weed control afforded by the compounds, mixtures or compositions is not limited to these species. The analysis of synergism or antagonism between the mixtures or compositions was determined using Colby's equation. Analogously, the Colby's equation can be used to determine synergism of 3-way and higher mixtures. Post Emergence Treatment by the Mixture of (Imazethapyr+Imazamox)+Cycloxydim

[2] = tested on: BRAPL (Brachiaria plantaginea); assay: Post emergence treatment, herbicidal activity against BRAPL; conditions: Example 2, post emergence; Cycloxydim 3 g ai/ha
Text: as §1

[3] = tested on: ORYSA (Orysa sativa); assay: Post emergence treatment, herbicidal activity against ORYSA
Text: as §1, with “Mixture of Imazethapyr+Cycloxydim Post Emergence Treatment by the Mixture of (Imazethapyr+Imazamox)+Cycloxydim” for “Mixture of (Imazethapyr+Imazamox)+Cycloxydim”

[4] = tested on: LEFFA (Leptochloa fusca); assay: Post emergence treatment, herbicidal activity against LEFFA; conditions: Example 1, post emergence
Text: as §1, with “Imazethapyr+Cycloxydim” for “(Imazethapyr+Imazamox)+Cycloxydim”

[5] = tested on: ECHCO (Echinochloa colonum); assay: Post emergence treatment, herbicidal activity against ECHCO
Text: as §1, with “Mixture of Imazethapyr+Cycloxydim Post Emergence Treatment by the Mixture of (Imazethapyr+Imazamox)+Cycloxydim” for “Mixture of (Imazethapyr+Imazamox)+Cycloxydim”

[6] = Example 1, post emergence, Cycloxydim 6 g ai/ha
[7] = Example 1, post emergence, Imazethapyr 7.5 g ai/ha

Row | Structure (SMILES) | Herbicidal activity against PHACA, Found ([1]; the 3rd table, Cycloxydim 3 g ai/ha) | Herbicidal activity against PHACA, Found ([1]; the 5th table, Cycloxydim 3 g ai/ha) | Herbicidal activity against PHACA, Found ([1]; Cycloxydim 6 g ai/ha) | Herbicidal activity against BRAPL, Found [2] | Herbicidal activity against ORYSA, Found [3, 6] | Herbicidal activity against ORYSA, Found ([3]; Example 2, post emergence, Cycloxydim 6 g ai/ha) | Herbicidal activity against LEFFA, Found ([4]; Cycloxydim 6 g ai/ha) | Herbicidal activity against ECHCO, Found [5, 6] | Herbicidal activity against ECHCO, Found ([5]; Example 2, post emergence, Cycloxydim 3 g ai/ha) | Herbicidal activity against ORYSA, Found [3, 7] | Herbicidal activity against LEFFA, Found ([4]; Imazethapyr 7.5 g ai/ha) | Herbicidal activity against ECHCO, Found [5, 7]
1 | CCCC(=NOCC)C1=C(O)CC(C2CCCSC2)CC1=O (racemic) [Cycloxydim, (5RS)-2-[(EZ)-1-(Ethoxyimino)butyl]-3-hydroxy-5-[(3RS)-thian-3-yl]cyclohex-2-en-1-one] | 0 | 0 | 60 | 0 | 20 | 20 | 40 | 50 | 0 | – | – | –
2 | CCc1cnc(C2=NC(C)(C(C)C)C(=O)N2)c(C(=O)O)c1 (racemic) [Imazethapyr, 5-ethyl-2-[(RS)-4-isopropyl-4-methyl-5-oxo-2-imidazolin-2-yl]nicotinic acid] | – | – | – | – | – | – | – | – | – | 50 | 55 | 85
